Measured values from US20250339569A1, “CARBONIC ANHYDRASE IX LIGANDS” (priority 2021, published 2025).
Read-outs that look alike come from different tables or passages of the source.

Tests used:
[1] = Pharmacokinetic characterization in healthy dogs; format: in vivo, beagle dogs; conditions: dog; for AUC(0-inf) / Cmax / clearance / half-life / Vd / CL renal: male, beagle, iv; for AUC(0-inf) / Cmax / clearance / half-life / Vd: plasma; for half-life: read-out: terminal half-life (T1/2) (converted); for Vd: read-out: volume of distribution; for CL renal: urine and plasma, read-out: estimated renal clearance
Experimental: The pharmacokinetics of DPI-4452 after a single intravenous (i.v.) dose was investigated in healthy dogs. […] Plasma and urine samples collected after dosing were analyzed using a LC-HRMS (liquid chromatography coupled with high-resolution mass spectrometry) assay method. Concentration values were used for pharmacokinetic calculations.
DPI 4452 was formulated in 0.1 M HEPES pH 7.0 at the final concentrations of 0.05 and 0.4 mg/mL for dosing at 0.1 and 0.8 mg/kg, respectively. Male beagle dogs (3 animals per dose level; overall 8.9 to 12.4 kg body weight) were administered intravenously (bolus) in a 2 mL/kg dosing volume. Blood samples were collected in K2EDTA tubes at 5 min, 15 min, 30 min, 1 h, 2 h, 4 h, 6 h, 24 h, and urine was collected over 24 hours post dose. The blood samples were kept on wet ice until plasma separation by centrifugation within 60 min after sampling. The plasma samples were transferred into plastic tubes, frozen and stored at −80° C. until analysis.
Plasma and urine samples were analyzed by […] after solid phase extraction, using DPI-4501 as internal standard. Chromatographic separation was run on a Waters Acquity HSS T3 C18 2.1×50 mm, 1.8 μm column. Detection was achieved on a Sciex API6600 TOF mass spectrometer. The lower limit of quantification was 2.00 ng/mL in urine and plasma.
The NCA pharmacokinetic analysis of plasma concentration data was conducted using Phoenix WinNonlin 6.3 software. Nominal doses were used for all animals. The terminal phase half-life (T1/2) was calculated by least-squares regression analysis of the terminal linear part of the log concentration-time curve. The area under the plasma concentration-time curve (AUC) was determined with the linear trapezoidal rule for increasing values and log trapezoidal rule for decreasing values up to the last measurable concentration.

[2] = Biodistribution study in healthy dog (SPECT/CT, blood pharmacokinetics, urine excretion); conditions: in vivo
mouse CAIX = biological target: T1, mouse CAIX (Mus musculus, UniProt Q8VHB5); experiment: Radioligand saturation binding on CHO-msCAIX
T1 construct: host or cells: CHO-VGT / CHO cells
T1 sequence (Q8VHB5 32-437): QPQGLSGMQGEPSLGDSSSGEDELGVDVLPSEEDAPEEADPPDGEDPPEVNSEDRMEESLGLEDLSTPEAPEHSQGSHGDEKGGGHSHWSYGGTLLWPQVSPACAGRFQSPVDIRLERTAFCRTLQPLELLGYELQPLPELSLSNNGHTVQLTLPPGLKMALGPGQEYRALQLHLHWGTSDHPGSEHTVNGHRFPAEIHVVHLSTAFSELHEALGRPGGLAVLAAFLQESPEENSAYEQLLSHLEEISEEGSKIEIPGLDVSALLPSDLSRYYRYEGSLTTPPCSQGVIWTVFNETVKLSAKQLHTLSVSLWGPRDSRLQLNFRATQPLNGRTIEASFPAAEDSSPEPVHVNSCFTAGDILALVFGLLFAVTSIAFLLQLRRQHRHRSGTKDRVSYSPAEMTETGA
Experimental: After attainment of equilibrium, the cells were harvested, and the bound fraction of the compounds was measured. The resulting saturation binding data were analyzed using Graph Pad Prism 8.3.
CHO cells transfected with human, dog, and mouse CAIX (CHO-huCA9 T04J-1/20 K1, CHO-dogCA9 T05J-9/20 K4, CHO-murCA9 T05J-3/20 K4) were obtained from InSCREENex (Germany).
A molar excess of 3BP-3565 was used as a blocking peptide to assess non-specific binding in autoradiographic studies. 3BP-3565 binds with a similar affinity to CAIX and blocks binding sites of test compounds. For the blocking solution, a 10 mM stock solution of 3BP-3565 was prepared by dissolution in DMSO.
CHO cells were maintained in Ham's medium supplemented with 10% fetal bovine serum, 2 mM L-glutamine, 100 U/mL Penicillin and 0.1 mg/mL streptomycin under standard cell culture conditions. The cells were grown in uncoated cell culture flasks (150 cm^2, Biochrom) to subconfluence and then split 1:2-1:3. Approximately 24 hours before the assay, cells were detached by incubation with Accutase and carefully tapping the flasks. Detached cells were resuspended in medium and collected by centrifugation (300 g, 5 min, RT). Cell pellets were resuspended in cell culture medium and counted using a particle counter (CASY Model TT, Scharfe Systems, Germany). Cell concentrations were adjusted to 3×10^5 mL^−1, and 1.000 μL per well of the suspension were dispensed into poly-D-lysine-coated flat-clear-bottom 24 well plates.
Compound radiolabeling was performed as follows. […] Then, 25 mg/mL methionine in 1 M sodium acetate buffer pH 5 was added at a final concentration of 0.1 M sodium acetate. Subsequently, the mixture was heated to 80° C. for 25 min, followed by cooling for 5 minutes. Finally, 20 μL of 200 mg/mL ascorbic acid solution, 2.5 μL of 5 mg/mL DTPA and 2.5 μL of 5% TWEEN-20 per 100 μL reaction mixture were added, resulting in the concentrated study solution. For quality control, an aliquot of the labeling solution was diluted 1:40 with 0.1% TWEEN-20 in 0.1 M sodium acetate buffer pH 5. Five microliters of the diluted labeling solution were injected onto a Poroshell SB-C18 2.1×50 mm, 2.7 μm column. HPLC analysis was performed as follows: Gradient A: H2O, 0.1% TFA, Gradient B: Acetonitrile (MeCN), gradient from 5% B to 70% B within 15 min, flow rate of 0.5 mL/min; detector: NaI, DAD 215 nm. The peak eluting with the dead volume represents free radionuclide, the peak eluting with the ligand-specific retention time as determined with a non-labeled sample represents the radiolabeled compound.
The radioligand saturation binding on CHO-msCAIX was determined as follows. […] Their associated radioactivity was counted using a gamma counter and normalized to the measured protein concentration of each well. […]

SMILES	time up to which plasma concentration was quantifiable ([1]; i.v. 0.1 mg/kg)	time up to which plasma concentration was quantifiable ([1]; i.v. 0.8 mg/kg) [h]	AUC(0-inf) ([1]; i.v. 0.1 mg/kg) [ng·h/mL]	Cmax ([1]; i.v. 0.1 mg/kg) [ng/mL]	clearance ([1]; i.v. 0.1 mg/kg) [mL/min/kg]	half-life ([1]; i.v. 0.1 mg/kg) [min]	Vd ([1]; i.v. 0.1 mg/kg) [L/kg]	AUC(0-inf) ([1]; i.v. 0.8 mg/kg) [ng·h/mL]	Cmax ([1]; i.v. 0.8 mg/kg) [ng/mL]	clearance ([1]; i.v. 0.8 mg/kg) [mL/min/kg]	half-life ([1]; i.v. 0.8 mg/kg) [min]	Vd ([1]; i.v. 0.8 mg/kg) [L/kg]	CL renal ([1]; i.v. 0.1 mg/kg) [mL/h/kg]	CL renal ([1]; i.v. 0.8 mg/kg) [mL/h/kg]	half-life [2] [min]	half-life ([2]; iv) [min]	Kd (mouse CAIX) [nM]	Mean pKd ± SD (mouse CAIX; CHO-msCAIX, single experiment)
CC(C)C[C@@H]1NC(=O)[C@H](Cc2cccc(NC(=O)CCCS(N)(=O)=O)c2)NC(=O)[C@H](CC(=O)O)NC(=O)[C@H]2CCCN2C(=O)[C@H](CCC(=O)O)NC(=O)[C@@H](NC(=O)[C@H](CCC(N)=O)NC(=O)CN2CCN(C(=O)CN3CCN(CC(=O)O)CCN(CC(=O)O)CCN(CC(=O)O)CC3)CC2)CSCc2cccc(c2)CSC[C@@H](C(N)=O)NC(=O)[C@H](CO)NC(=O)[C@H](Cc2c[nH]c3ccccc23)NC(=O)[C@H]([C@@H](C)O)NC1=O [DPI-4452, DOTA-PPAc-Gln-[Cys(3MeBn)-Glu-pro-Asp-Af3(Cpsu)-Leu-Thr-Trp-Ser-Cys]-NH2]	up to 2 h	≤ 4	133	377	12.7	22.8	0.26	1760	4430	7.6	28.8	0.19	2.06	0.684				
CC(C)C[C@@H]1NC(=O)[C@H](Cc2cccc(NC(=O)CCCS(N)(=O)=O)c2)NC(=O)[C@H](CC(=O)O)NC(=O)[C@H]2CCCN2C(=O)[C@H](CCC(=O)O)NC(=O)[C@@H](NC(=O)[C@H](CCC(N)=O)NC(=O)CN2CCN(C(=O)CN3CCN(CC(=O)O)CCN(CC(=O)O)CCN(CC(=O)O)CC3)CC2)CSCc2cccc(c2)CSC[C@@H](C(N)=O)NC(=O)[C@H](CO)NC(=O)[C@H](Cc2c[nH]c3ccccc23)NC(=O)[C@H]([C@@H](C)O)NC1=O [[^111In]In-DPI-4452, metal not drawn]															55.6	5.43	63.1	7.2
